Assay [1] deals with SDH-deficient GIST. The experiment in a line: Phase 1 trial HQP1351-SJ-0003: antitumor efficacy per RECIST v1.1 in SDH-deficient GIST subgroup. The assay is classed as in vivo, human. From the text:
NCT03594422). The dose escalation aspect of the study enrolled patients with advanced and/or metastatic GIST or other solid tumors that were refractory or had relapsed after treatment with at least one TKI. […] All AEs were graded according to the US National Cancer Institute (NCI) Common Terminology Criteria for Adverse Events (CTCAE; version 4.03). […] Urinalysis, coagulation, cardiac troponin I/T, lipase, amylase, and electrocardiograms were done at baseline; during cycles 1 and 2 (on days 1 and 15); cycle 3, 5, 7, and 9; every 3 cycles after cycle 9 (on day 1); and 14 days after the last dose of treatment. All patients underwent tumor imaging for response assessment via computed tomography or magnetic resonance imaging at screening and every two cycles (8 weeks) until progression or discontinuation. Target and nontarget lesions were assessed per Response Evaluation Criteria in Solid Tumors version 1.1 (RECIST v1.1). CBR was defined as the proportion of patients with a confirmed CR or PR of any duration or SD for at least 16 weeks from the start of treatment (CBR=CR+PR+SD≥16 weeks). ORR was defined as the proportion of patients with a confirmed CR or PR of any duration (ORR=CR+PR). PFS was defined as the time from the start of treatment to the date of first documented disease progression or death due to any cause, whichever occurred first. OS was defined as the time from start of treatment until the date of death. We evaluated antitumor activity in patients from the SDH-deficient GIST population who had at least one postbaseline disease assessment. We used Kaplan-Meier methods to estimate PFS, and OS; corresponding 95% CIs are provided. Efficacy results for patients with SDH-deficient GIST are reported separately. All statistical analyses were performed with SAS (version 9.3 or higher; SAS Institute, Cary, NC).

Assay [2] deals with PC12 or PC12 #5F7 (SDHB KD) cells. The experiment in a line: Cell death assay (AO/PI staining). The assay is classed as cell-based, rat. To be noted: 24 hours exposure; FIG. 2B left. The protocol:
Cells were extracted from SDH-deficient patient tumor tissues, seeded into 96-well plates, and incubated for 24 hours in GIST culture medium. […] Right panel, Colony formation assay in renal carcinoma cells 7860 (SDHB-wild-type) and OS-RC-2 (SDHB-deficient). Cells were seeded into 6-well plates and incubated overnight in complete culture medium.
Rat pheochromocytoma cells (PC12 or PC12 SDHB KD cells PC12 #5F7) were seeded into 24-well plates and incubated overnight in complete culture medium. […] The cell suspension was mixed at a 1:1 ratio with Viastain™ AOPI Staining solution (acridine orange/propidium iodide, #2210170205, Nexelcom Bioscience, Lawrence, MA, USA). After staining, dead cells were counted on a Cellometer® Auto 2000 Cell Counter (Nexelcom).

Assay [3] concerns GIST430 cell-derived xenograft. Nature of the assay: Imatinib-resistant GIST430 cell-derived xenograft model. The assay is classed as in vivo. To be noted: olverembatinib 15 mg/kg every other day for 3 weeks; lisaftoclax 50 mg/kg daily for 3 weeks; alone or combined. The source says: Therefore, selective inhibition of BCL-2, aided by TKI-mediated MCL-1 and BCL-XL inhibition, markedly augmented cleavage of caspase-3 and poly(ADP-ribose) polymerase 1 (PARP-1), thus triggering apoptosis and subsequently enhancing antitumor effects.

SMILES strings stand for the structures.

In assay [1] (SDH-deficient GIST cohort at data cut-off), `Cc1ccc(C(=O)Nc2ccc(CN3CCN(C)CC3)c(C(F)(F)F)c2)cc1C#Cc1cnc2[nH]ncc2c1` [Olverembatinib, olverembatinib] displayed an overall survival rate of 100%. Besides, the “complete response (CR)” value in assay [1] (SDH-deficient GIST subgroup, 26 evaluable patients) is on record as “No patient experienced a complete response”. Moreover, the “confirmed overall responses per RECIST v1.1” value in assay [1] (SDH-deficient GIST subgroup, median follow-up 17.0 months) is recorded as 6 of 26 evaluable patients. The “median progression-free survival (PFS)” value in assay [1] (SDH-deficient GIST, Kaplan-Meier estimate, RECIST v1.1) is 25.7 months. In addition, the “cell death activity in SDHB KD versus parental cells” value in assay [2] is given as “dose-dependently more potent activity in PC12 #5F7 than in parental PC12 cells”. The “Tumor growth inhibition (TGI) rate” value in assay [3] is reported as 57.6%.

Values taken from patent US20260287586A1, “METHODS OF TREATING TKI-RESISTANT AND SDH-DEFICIENT GIST” (priority 2023, published 2026).
